Tests used:
systolic blood pressure = assay: Anti-hypertensive action on spontaneously hypertonic rats (oral); assay type: in vivo, male spontaneously hypertonic Okamoto rats
Protocol: 3. Anti-hypertensive action on spontaneously hypertonic rats.
The substances are administered orally to groups of 8 male spontaneously hypertonic Okamoto rats (weight 280-350 g). Before, and two hours after, the administration the systolic blood pressure is measured non-surgically on the rats' tails by means of piezoelectric crystal sensors.

[1] = tested on: blood pressure in the carotid artery; assay: animal or person; conditions: for ED20: Rattus norvegicus, iv, read-out: Blood pressure-lowering action ED 20%; for animals died: 10 mg/kg, rats
Protocol: 2. Blood pressure-lowering action on narcotized rats.
The blood pressure in the carotid artery is measured by means of a Statham transducer.
(2) Intravenous administration to rats under urethane narcosis. ED 20% =
dose, in mg/kg, which lowers the blood pressure by 20%.

in vivo = conditions: for LD 50 / toxicity compared with propranolol (in words): i.p., mice
Text: 4. Acute toxicity in mice
The period of observation is 1 week.
(4) Intraperitoneal administration to mice.

[2] = tested on: isoproterenol-induced tachycardia; conditions: for ED50: Felis catus, read-out: β-Sympatholytic action ED 50%; for ED50 / β-Sympatholytic action R.A. (relative activity): iv; for β-Sympatholytic action R.A. (relative activity) / β-sympatholytic activity (in words): in vivo
[3] = tested on: blood pressure in the carotid artery; conditions: general statement, no test or species given; cited from earlier work
[4] = 0.001 mg/kg i.v., cats under hexobarbital narcosis, average

Row | Compound | ED20 [1] | LD 50 / toxicity compared with propranolol (in words) (in vivo) | ED50 [2] | β-Sympatholytic action R.A. (relative activity) [2] | also measured
1 | Cc1cc(C=Cc2ccccc2OCC(O)CNC(C)(C)C)on1 (stereo not drawn) [Example 3, 3-Methyl-5-[2-(2-hydroxy-3-tert.-butylaminopropoxy)-styryl]-isoxazole] | 0.4 mg/kg | somewhat higher than that of propranolol | 0.0055 mg/kg | – | ED20 (systolic blood pressure; Rattus norvegicus, po, 2 h, read-out: Anti-hypertensive action ED 20%): 14.5 mg/kg; animals died ([1]; i.v.): 1 out of 6; Blood pressure-lowering action ED 20% ([1]; i.v., rats under urethane narcosis, dose lowering mean carotid artery pressure by 20%): 0.40 mg/kg
2 | CC(C)NCC(O)COc1cccc2ccccc12 (stereo not drawn) [Propranolol, reference compound] | – | – | 0.11 mg/kg | – | anti-hypertensive action, oral (in words) (systolic blood pressure; oral, spontaneously hypertonic rats, propranolol up to a dose of 100 mg/kg): ineffective; anti-hypertensive action of conventional β-sympatholytic agents (in words) [3]: only exhibit an anti-hypertensive action on lengthy administration; animals died ([1]; i.v.): 2 out of 6
3 | C#CC(C)(C)NCC(O)COc1ccccc1C=Cc1cc(C)no1 (stereo not drawn) [Example 13, 3-Methyl-5-[2-(2-hydroxy-3-(3-methyl-but-1-ynyl-3-amino)-propoxy)-styryl]-isoxazole] | 1 mg/kg | more than twice as high as that of propranolol | 0.017 mg/kg | 6.5 | –
4 | Cc1cc(C=Cc2ccccc2OCC(O)CNC(C)C)on1 (stereo not drawn) [Example 1, 3-Methyl-5-[2-(2-hydroxy-3-isopropyl-aminopropoxy)-styryl]-isoxazole] | 0.65 mg/kg | of the same toxicity, or somewhat more toxic | 0.0077 mg/kg | – | β-sympatholytic activity (in words) [2]: high activity
5 | CCc1cc(C=Cc2ccccc2OCC(O)CNC(C)(C)C)on1 (stereo not drawn) [Example 6, 3-Ethyl-5-[2-(2-hydroxy-3-tert.-butylaminopropoxy)-styryl]-isoxazole] | 0.93 mg/kg | of the same toxicity, or somewhat more toxic | 0.018 mg/kg | 6.1 | β-sympatholytic activity (in words) [2]: high activity
6 | CCc1cc(C=Cc2ccccc2OCC(O)CNC2CC2)on1 (stereo not drawn) [Example 5, 3-Ethyl-5-[2-(2-hydroxy-3-cyclopropylaminopropoxy)-styryl]-isoxazole] | 0.83 mg/kg | of the same toxicity, or somewhat more toxic | 0.12 mg/kg | 0.9 | LD50 at 168 h (in vivo; mouse, in vivo, ip): 95 mg/kg
7 | CC(C)NCC(O)c1ccc(O)c(O)c1 (stereo not drawn) [isoproterenol, reference compound] | – | – | – | – | increase of pulse rate [2, 4]: 61 beats; increase of pulse rate, percent [2, 4]: 40%

— patent US4251539A, “Amino derivatives of 3-alkyl-5-(2-hydroxystyryl)-isoxazoles” (BASF Aktiengesellschaft, priority 1978, dated 1981)
